Measurements taken from patent US20190367516A1 (Bayer Pharma Aktiengesellschaft, priority 2015, published 2019).
pEC50: −log10 of the molar value. Where two headings read alike, the source gives them in different places.

Target: T1, human M2 receptor (Homo sapiens, UniProt P08172)
T1 sequence (P08172 1-466): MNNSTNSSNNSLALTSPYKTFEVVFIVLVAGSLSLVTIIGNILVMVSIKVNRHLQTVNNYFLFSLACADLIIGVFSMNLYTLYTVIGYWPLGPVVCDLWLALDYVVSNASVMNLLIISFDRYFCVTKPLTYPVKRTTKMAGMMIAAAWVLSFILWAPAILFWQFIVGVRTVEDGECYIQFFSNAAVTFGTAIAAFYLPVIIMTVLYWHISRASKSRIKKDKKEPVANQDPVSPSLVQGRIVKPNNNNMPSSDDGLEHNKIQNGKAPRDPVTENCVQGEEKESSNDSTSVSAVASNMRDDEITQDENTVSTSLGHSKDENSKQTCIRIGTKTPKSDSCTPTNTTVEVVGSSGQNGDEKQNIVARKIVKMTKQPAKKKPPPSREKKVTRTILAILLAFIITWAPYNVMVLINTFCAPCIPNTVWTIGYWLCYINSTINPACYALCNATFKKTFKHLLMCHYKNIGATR
Settings: for Efficiency: boosting of the acetylcholine effect at EC20 acetylcholine concentration

[1] = Receptor activity EC50, allosteric potency at EC20 acetylcholine, M2-GIRK1/4 reporter cells, in some cases mean of two or more determinations
[2] = read-out: Efficiency, boosting of the acetylcholine effect at EC20 acetylcholine concentration, M2-GIRK1/4 reporter cells
[3] = Receptor activity EC50, M2-GIRK1/4 activation test, acetylcholine at EC20, allosteric potency, in some cases mean values from two or more determinations

| SMILES | pEC50 [1] | Emax [2] | pEC50 [3] | other results |
| --- | --- | --- | --- | --- |
| O=C(NC(c1ccccc1Cl)C(F)(F)F)c1cn(-c2c(F)cc(F)cc2F)c2nc(N3CCNC3=O)ccc2c1=O (single isomer, unassigned) [Example 564, N-[1-(2-Chlorophenyl)-2,2,2-trifluoroethyl]-4-oxo-7-(2-oxoimidazolidin-1-yl)-1-(2,4,6-trifluorophenyl)-1,4-dihydro-1,8-naphthyridine-3-carboxamide] | 7.38 | 89% |  |  |
| CC(NC(=O)c1cn(-c2ccc(F)cc2F)c2nc(N(C)CC(F)(F)F)ccc2c1=O)C(F)(F)F (racemic) [Example 99, rac-1-(2,4-Difluorophenyl)-7-[methyl(2,2,2-trifluoroethyl)amino]-4-oxo-N-[1,1,1-trifluoropropan-2-yl]-1,4-dihydro-1,8-naphthyridine-3-carboxamide] |  |  | 6.74 |  |
| CC[C@H](NC(=O)c1cn(-c2c(F)cc(F)cc2Cl)c2nc(N3CCC(C)C3=O)ccc2c1=O)C(F)(F)F (single isomer, unassigned) [Example 423] | 5.50 |  |  | Efficiency (M2-GIRK1/4 reporter cells): 53.5% |
| O=C(NC(c1cccc(Cl)c1)C(F)(F)F)c1cn(-c2ccc(F)cc2F)c2nc(N3C[C@@H](O)CC3=O)ccc2c1=O (mixture of isomers) [Example 274, N-[1-(3-Chlorophenyl)-2,2,2-trifluoroethyl]-1-(2,4-difluorophenyl)-7-[(4S)-4-hydroxy-2-oxopyrrolidin-1-yl]-4-oxo-1,4-dihydro-1,8-naphthyridine-3-carboxamide] |  |  | 7.31 |  |
| CC[C@@H](NC(=O)c1cn(-c2ccc(F)cc2F)c2nc(N3C(=O)CCC3C)ccc2c1=O)C(F)(F)F (mixture of isomers) [Example 426, 1-(2,4-Difluorophenyl)-7-[2-methyl-5-oxopyrrolidin-1-yl]-4-oxo-N-[(2R)-1,1,1-trifluorobutan-2-yl]-1,4-dihydro-1,8-naphthyridine-3-carboxamide] | 7.32 | 92% |  |  |
| CCCC(NC(=O)c1cn(-c2ccc(F)cc2F)c2nc(NCCO)ccc2c1=O)C(F)(F)F (stereo not drawn) [Example 81, 1-(2,4-Difluorophenyl)-7-[(2-hydroxyethyl)amino]-4-oxo-N-[1,1,1-trifluoropentan-2-yl]-1,4-dihydro-1,8-naphthyridine-3-carboxamide] |  |  | 6.99 |  |
| O=C(NC(C1CC1)C(F)(F)F)c1cn(-c2ccc(F)cc2F)c2nc(N3C[C@@H](O)CC3=O)ccc2c1=O (mixture of isomers) [Example 283] |  |  | 7.40 |  |
| CC[C@H](NC(=O)c1cn(-c2ccc(F)cc2F)c2nc(N3CCC(F)(F)C3)ccc2c1=O)C(F)(F)F [Example 75, 1-(2,4-Difluorophenyl)-7-(3,3-difluoropyrrolidin-1-yl)-4-oxo-N-[(2S)-1,1,1-trifluorobutan-2-yl]-1,4-dihydro-1,8-naphthyridine-3-carboxamide] |  |  | 7.14 |  |
| O=C(NC12CC3CC(CC(C3)C1)C2)c1cn(-c2ccc(F)cc2F)c2nc(N3CCCC(F)(F)C3)ccc2c1=O [Example 1, 1-(2,4-Difluorophenyl)-7-(3,3-difluoropiperidin-1-yl)-4-oxo-N-(tricyclo[3.3.1.1^3,7]dec-1-yl)-1,4-dihydro-1,8-naphthyridine-3-carboxamide] |  |  | 7.85 |  |
| CC[C@@H](NC(=O)c1cn(-c2ccc(F)cc2F)c2nc(N3CCN(C)C3=O)ccc2c1=O)C(F)(F)F [Example 321, 1-(2,4-Difluorophenyl)-7-(3-methyl-2-oxoimidazolidin-1-yl)-4-oxo-N-[(2R)-1,1,1-trifluorobutan-2-yl]-1,4-dihydro-1,8-naphthyridine-3-carboxamide] |  |  | 7.37 |  |
| CC1(O)CCN(c2ccc3c(=O)c(C(=O)NC(C4CC4)C(F)(F)F)cn(-c4c(F)cccc4F)c3n2)C1 (racemic) [Example 326, N-[1-Cyclopropyl-2,2,2-trifluoroethyl]-1-(2,6-difluorophenyl)-7-[3-hydroxy-3-methylpyrrolidin-1-yl]-4-oxo-1,4-dihydro-1,8-naphthyridine-3-carboxamide] |  |  | 7.33 |  |
| O=C(NC12CC3CC(CC(C3)C1)C2)c1cn(-c2ccc(F)cc2F)c2nc(N3CCC(F)CC3)ccc2c1=O [Example 5, 1-(2,4-Difluorophenyl)-7-(4-fluoropiperidin-1-yl)-4-oxo-N-(tricyclo[3.3.1.1^3,7]dec-1-yl)-1,4-dihydro-1,8-naphthyridine-3-carboxamide] |  |  | 7.51 |  |
| CCC(NC(=O)c1cn(-c2ccc(F)cc2F)c2nc(N3CCCS3(=O)=O)ccc2c1=O)C(F)(F)F (stereo not drawn) [Example 180] |  |  | 6.94 |  |
| CCC(NC(=O)c1cn(-c2ccc(F)cc2F)c2nc(N3CC(CO)C3)ccc2c1=O)C(F)(F)F (racemic) [Example 26, rac-1-(2,4-Difluorophenyl)-7-[3-(hydroxymethyl)azetidin-1-yl]-4-oxo-N-[1,1,1-trifluorobutan-2-yl]-1,4-dihydro-1,8-naphthyridine-3-carboxamide] |  |  | 6.79 |  |
| CCC(NC(=O)c1cn(-c2c(F)cc(F)cc2F)c2nc(N3C[C@@H](O)[C@H](O)C3)ccc2c1=O)C(F)(F)C(F)(F)F (mixture of isomers) [Example 522, 7-[(3R,4R)-3,4-Dihydroxypyrrolidin-1-yl]-4-oxo-N-[1,1,1,2,2-pentauoropentan-3-yl]-1-(2,4,6-trifluorophenyl)-1,4-dihydro-1,8-naphthyridine-3-carboxamide] |  |  |  | Emax (read-out: Efficiency): 92.8% |

Second part, led by results:

| pEC50 [1] | Emax [2] | pEC50 [3] | SMILES | other results |
| --- | --- | --- | --- | --- |
| 7.55 | 99% |  | CCC(COC(F)(F)F)NC(=O)c1cn(-c2c(F)cc(F)cc2F)c2nc(N3CCNC3=O)ccc2c1=O (racemic) [Example 609, 4-Oxo-7-(2-oxoimidazolidin-1-yl)-N-[1-(trifluoromethoxy)butan-2-yl]-1-(2,4,6-trifluorophenyl)-1,4-dihydro-1,8-naphthyridine-3-carboxamide] |  |
| 7.96 |  |  | CC[C@H](NC(=O)c1cn(-c2c(F)cc(F)cc2Cl)c2nc(N3C[C@@H](O)[C@H](O)C3)ccc2c1=O)C(F)(F)F (single isomer, unassigned) [Example 568] | Efficiency (M2-GIRK1/4 reporter cells): 100.0% |
| 8.10 | 95.5% |  | O=C(N[C@H](C1CC1)C(F)(F)F)c1cn(-c2c(F)cc(F)cc2F)c2nc(N3CC4CC4(O)C3)ccc2c1=O (stereo partly drawn) [Example 405, N-[(1R)-1-Cyclopropyl-2,2,2-trifluoroethyl]-7-[1-hydroxy-3-azabicyclo[3.1.0]hex-3-yl]-4-oxo-1-(2,4,6-trifluorophenyl)-1,4-dihydro-1,8-naphthyridine-3-carboxamide] |  |
| 7.08 | 100% |  | NC(=O)N1CCN(c2ccc3c(=O)c(C(=O)N[C@H](C4CC4)C(F)(F)F)cn(-c4c(F)cc(F)cc4F)c3n2)CC1 [Example 650, 7-(4-Carbamoylpiperazin-1-yl)-N-[(1R)-1-cyclopropyl-2,2,2-trifluoroethyl]-4-oxo-1-(2,4,6-trifluorophenyl)-1,4-dihydro-1,8-naphthyridine-3-carboxamide] |  |
|  |  | 7.46 | CC(C)(NC(=O)c1cn(-c2c(F)cc(F)cc2F)c2nc(N3C[C@@H](O)[C@H](O)C3)ccc2c1=O)C1CC1 [Example 379, N-(2-Cyclopropylpropan-2-yl)-7-[(3R,4R)-3,4-dihydroxypyrrolidin-1-yl]-4-oxo-1-(2,4,6-trifluorophenyl)-1,4-dihydro-1,8-naphthyridine-3-carboxamide] |  |
| 7.89 | 96% |  | COC(=O)N1CCN(c2ccc3c(=O)c(C(=O)NC(C)(C)CC(F)(F)F)cn(-c4c(F)cc(F)cc4F)c3n2)CC1 [Example 575, Methyl 4-{5-oxo-6-[(4,4,4-trifluoro-2-methylbutan-2-yl)carbamoyl]-8-(2,4,6-trifluorophenyl)-5,8-dihydro-1,8-naphthyridin-2-yl}piperazine-1-carboxylate] |  |
| 7.31 | 100% |  | CC(C)(CC(F)(F)F)NC(=O)c1cn(-c2c(F)cc(F)cc2F)c2nc(N3CC(O)C4(CC4)C3)ccc2c1=O (racemic) [Example 569, 7-[7-Hydroxy-5-azaspiro[2.4]hept-5-yl]-4-oxo-N-(4,4,4-trifluoro-2-methylbutan-2-yl)-1-(2,4,6-trifluorophenyl)-1,4-dihydro-1,8-naphthyridine-3-carboxamide] |  |
|  |  | 7.47 | CC[C@@H](NC(=O)c1cn(-c2c(F)cc(F)cc2F)c2nc(N3CCC(C)(O)C3)ccc2c1=O)C(F)(F)F (stereo partly drawn) [Example 324, 7-[3-Hydroxy-3-methylpyrrolidin-1-yl]-4-oxo-N-[(2R)-1,1,1-trifluorobutan-2-yl]-1-(2,4,6-trifluorophenyl)-1,4-dihydro-1,8-naphthyridine-3-carboxamide] |  |
| 7.36 | 97.5% |  | O=C(N[C@@H](C1CC1)C(F)(F)F)c1cn(-c2c(F)cc(F)cc2F)c2nc(N3CC4(COC4)C3)ccc2c1=O [Example 492] |  |
| 7.54 | 90% |  | CC(C)[C@H](C)NC(=O)c1cn(-c2c(F)cc(F)cc2F)c2nc(N3C[C@@H](O)[C@H](O)C3)ccc2c1=O [Example 472, 7-[(3R,4R)-3,4-Dihydroxypyrrolidin-1-yl]-N-[(2S)-3-methylbutan-2-yl]-4-oxo-1-(2,4,6-trifluorophenyl)-1,4-dihydro-1,8-naphthyridine-3-carboxamide] |  |
